Test results: PubChem BioAssay (NCI)
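Five concentrations, 48 hours, 96-well plates. TGI marks complete inhibition of growth.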

Assays:
Assay in all cases: NCI-60 cell line screen, 48 h
[1] = tested on: SN12C renal
[2] = tested on: PC-3 prostate
[3] = tested on: SK-MEL-28 melanoma
[4] = tested on: HCC-2998 colon
[5] = tested on: MALME-3M melanoma
[6] = tested on: A498 renal
[7] = tested on: HOP-92 NSCLC
[8] = tested on: TK-10 renal
[9] = tested on: LOX IMVI melanoma
[10] = tested on: CAKI-1 renal
[11] = tested on: RPMI-8226 leukemia

Structure (SMILES)	TGI [1]	TGI [2]	TGI [3]	TGI [4]	TGI [5]	TGI [6]	TGI [7]	TGI [8]	TGI [9]	TGI [10]	TGI [11]
Cc1cc(-c2nc3cc(F)ccc3s2)ccc1N	> 100 µM	> 76.2 µM	> 100 µM	> 100 µM	> 100 µM	66.8 µM	> 78 µM	> 4.64 µM	> 100 µM	> 94 µM	> 100 µM
O=C1CSC(c2ccccc2)N1c1ccc(-c2ccc(-n3c(-c4ccccc4)nc4ccccc4c3=O)cc2)cc1 (stereo unspecified)	> 100 µM	> 100 µM	> 100 µM	> 100 µM	> 100 µM	> 100 µM	> 100 µM	> 100 µM	> 100 µM	> 100 µM	> 100 µM
COc1ccc2nc3cccc([N+](=O)[O-])c3c(NCCC(=O)O)c2c1	> 10 µM	> 10 µM	> 10 µM	> 10 µM	> 10 µM	> 10 µM	> 10 µM	> 10 µM	> 10 µM	> 10 µM	> 10 µM
CN(C)c1n2c3ccc([N+](=O)[O-])cc3n3c(N(C)C)[n+]4ccccc4c3c2c2cccc[n+]12	> 100 µM	> 100 µM	> 100 µM	> 100 µM	> 100 µM	> 100 µM	> 100 µM	> 100 µM	> 100 µM	> 100 µM	> 100 µM
O=C1c2ccccc2C(=O)c2c1oc1cc(O)c(Cl)cc21	22.5 µM	29.6 µM	7.62 µM	14.8 µM	2.51 µM	34 µM	25.9 µM	38.5 µM	7.88 µM	32.5 µM	55.3 µM
N#Cc1c(C#N)c(SSc2c(C#N)c(C#N)c(N)n2-c2cccc3ccccc23)n(-c2cccc3ccccc23)c1N	34.8 µM	35.5 µM	> 100 µM	85.8 µM	3.4 µM	> 63.6 µM	13.6 µM	40.9 µM	–	29.5 µM	> 100 µM
C=CC(C)(C)NC(C(=O)N1CCC[C@H]1c1nc(-c2nc(C(=O)OCC=C(C)C)c(C)o2)c(C)o1)C(C)C (stereo partly specified)	> 72.2 µM	> 100 µM	> 100 µM	> 100 µM	> 100 µM	> 100 µM	> 100 µM	> 100 µM	> 74.5 µM	99.8 µM	> 100 µM
CC(=Nc1ccc(Cl)cc1)c1ccncc1	> 100 µM	> 100 µM	> 100 µM	> 100 µM	> 100 µM	> 100 µM	> 100 µM	–	> 100 µM	> 100 µM	> 100 µM
COc1ccc2nc3c4c(nccc4c2c1)-c1ncccc1C3=O	0.298 µM	3.14 µM	0.655 µM	0.805 µM	0.291 µM	0.224 µM	12.3 µM	0.613 µM	0.0977 µM	1.83 µM	0.236 µM
COc1cccc(CCn2c(N)c(-c3cc(Cl)cc(Cl)c3)c3ccc([N+](=O)[O-])cc3c2=O)c1	> 86.7 µM	> 61.9 µM	> 100 µM	> 31.6 µM	32.6 µM	> 28.8 µM	7.93 µM	> 100 µM	> 56.1 µM	41.7 µM	3.02 µM
C=C1N(C)c2ccc(S(=O)(=O)c3ccc4c(c3)C(C)(C)C(=C)N4C)cc2C1(C)C	> 100 µM	> 100 µM	> 100 µM	> 100 µM	79 µM	> 100 µM	41.1 µM	> 100 µM	–	> 100 µM	35.5 µM
COc1ccc(/C(C)=C2\CCCN(Cc3ccccc3)C2)cc1	–	62.7 µM	58.4 µM	44.7 µM	34.8 µM	> 100 µM	60.4 µM	> 100 µM	35.3 µM	58.4 µM	47.4 µM
c1ccc2c(c1)CCN1CCc3ccccc3C1C2 (stereo unspecified)	> 100 µM	> 100 µM	> 100 µM	> 100 µM	> 100 µM	> 100 µM	> 100 µM	> 100 µM	> 100 µM	> 100 µM	> 100 µM
Nc1c(F)c(F)c2c(c1F)N(CCCCCl)c1ccccc1S2	> 100 µM	> 100 µM	> 100 µM	> 100 µM	> 100 µM	> 100 µM	> 100 µM	> 100 µM	> 100 µM	> 100 µM	> 100 µM
O=S(=O)(O)c1c(Cl)c(Cl)c(O)c2ncccc12	40.8 µM	> 59.6 µM	39.8 µM	31.4 µM	31.1 µM	26 µM	47.8 µM	27.4 µM	7.99 µM	65.4 µM	> 83.6 µM
